In patent US5985900A, “Metalloproteinase inhibitors, pharmaceutical compositions containing them and their pharmaceutical uses” (Agouron Pharmaceuticals, Inc., priority 1998, dated 1999) one finds Ki data, which are given here for eight molecules.

Like-named read-outs stand apart in the source and are kept apart here.

Holding throughout (format): biochemical
The target in assay [1] is human progelatinase A (GelA) (Homo sapiens, UniProt P08253). Kind of assay: In vitro MMP inhibition assay (hydrolysis of fluorogenic MCA peptide substrate), gelatinase A. As for the experimental part: The catalytic and fibronectin-like portion of human progelatinase A (GelA) was expressed as a fusion protein with ubiquitin in E. Coli. Assays were carried out on autocatalytically activated material.
(§1) Assays were performed in assay buffer (50 mM Tricine pH 7.5, 200 mM sodium chloride, 10 mM calcium chloride, 0.5 mM zinc acetate containing 2% dimethyl sulfoxide (DMSO)) once the substrate and inhibitor were diluted into it. Stock solutions of inhibitors were prepared in 100% DMSO. Stock solutions of the substrate were prepared in 100% DMSO at a concentration of 6 mM.
(§2) The assay method was based on the hydrolysis of MCA-Pro-Leu-Gly-Leu-DPA-Ala-Arg-NH2 (American Peptide Co.) at 37° C. (see Knight, C. G. et al., FEBS, 1992, 296, 263-266). The fluorescence changes were monitored with a Perkin-Elmer LS-50B fluorimeter using an excitation wavelength of 328 nm and an emission wavelength of 393 nm. The substrate concentration used in the assays was 10 μM. The inhibitor was diluted into the assays from a solution in 100% DMSO, and controls substituted an equal volume of DMSO so that the final DMSO concentration from inhibitor and substrate dilution in all assays was 2%. […] Proper determination of steady-state rates of substrate cleavage required assay lengths of 60 minutes to allow for complete equilibration of the enzyme-inhibitor complex.
(§3) The Km for the MCA peptide substrate with the matrix metalloproteinases is quite high and exceeds its solubility under assay conditions. Consequently, the apparent Ki (Ki,app) was determined to describe the strength of inhibition. However, in this case, Ki,app would be essentially equal to Ki since [S]<<Km. For the determination of Ki,app, the concentration of the inhibitor was varied at a constant and low concentration of substrate and the steady-state rates of fluorescence change determined. In most cases absorptive quench due to the presence of ligand was not observed. For slow-binding inhibitors, onset of inhibition curves were collected for at least 45 minutes so that equilibrium was established. Steady-state rates of fluorescence change were obtained by fitting a curve to an equation for a single exponential decay containing a linear phase. The fitted value of the linear phase was taken as the steady-state rate. The steady-state rates were fitted to the Michaelis equation describing competitive inhibition by non-linear methods. Data resulting from tight-binding inhibition was analyzed, and Ki,app determined by fitting the data to the tight-binding equation of Morrison (Biochem. Biophys. Acta, vol. 185, pp. 269-286 (1969)) by non-linear methods.
(§4) All Ki values are in nM units.

The next assay deals with T1, Human matrilysin (Matr) (Homo sapiens, UniProt P09237).
T1 construct: catalytic domain liberated with APMA
T1 sequence (P09237 95-267): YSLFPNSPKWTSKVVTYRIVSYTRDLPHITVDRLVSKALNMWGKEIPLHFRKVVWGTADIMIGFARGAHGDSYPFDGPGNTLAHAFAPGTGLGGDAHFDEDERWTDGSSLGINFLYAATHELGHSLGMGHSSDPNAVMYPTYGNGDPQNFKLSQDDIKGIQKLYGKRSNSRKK
Put plainly: In vitro MMP inhibition assay (hydrolysis of fluorogenic MCA peptide substrate), matrilysin. To be noted: Table 1; Ki,app; MCA peptide substrate 10 μM, 37° C., pH 7.5, 2% DMSO; read-out: Matri Ki. How it is done: Human matrilysin (Matr) was expressed in E. coli as a fusion protein with ubiquitin. After purification of the matrilysin/ubiquitin fusion from inclusion bodies, the catalytic domain was liberated by treatment with 2 mM APMA at 37° C. for 2 hours. Final purification was complete using copper chelate chromatography.
as §1, §2, §3, §4

The next assay deals with human stromelysin (Sln) (Homo sapiens, UniProt P08254). Kind of assay: In vitro MMP inhibition assay (hydrolysis of fluorogenic MCA peptide substrate), stromelysin. As for the experimental part:
The catalytic domain of human stromelysin (Sln) was obtained by expression and purification of a C-terminally truncated prostromelysin-1 from E. coli host BL21 (see Marcy et al. Biochem., 1991, 30, 6476). The subsequent activation of the mature form (Sln) was completed with 2 mM APMA for 1 hour at 37° C., followed by separation using a sizing column.
as §1, §2, §3, §4

Assay [2] has as its target T2, human collagenase-1 (HFC) (Homo sapiens, UniProt P03956).
T2 sequence (P03956 100-269 limits assumed): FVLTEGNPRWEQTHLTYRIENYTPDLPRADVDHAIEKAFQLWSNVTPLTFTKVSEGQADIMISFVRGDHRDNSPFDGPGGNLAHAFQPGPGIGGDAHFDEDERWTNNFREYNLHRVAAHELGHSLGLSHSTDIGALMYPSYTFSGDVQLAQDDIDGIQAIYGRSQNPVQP
Kind of assay: In vitro MMP inhibition assay (hydrolysis of fluorogenic MCA peptide substrate), fibroblast collagenase-1. To be noted: Table 1; Ki,app; MCA peptide substrate 10 μM, 37° C., pH 7.5, 2% DMSO. How it is done: The catalytic domain of human collagenase-1 was expressed as a fusion protein with ubiquitin in E. coli (see Gehring, E. R., J Biol. Chem., 1995, 270, 22507). After purification of the fusion protein, the fibroblast collagenase-1 catalytic domain (HFC) was released either by treatment with purified, active stromelysin-1 (1:50 wlw ratio), which generated nearly 100% N-terminal Phe1, or by autoprocessing the concentrated collagenase-1 fusion and then incubating at 37° C. for 1 hour. Final purification was completed using zinc chelate chromatography.
as §1, §2, §3, §4

The target of assay [3] is T3, human collagenase-3 (Coll3) (Homo sapiens, UniProt P45452).
T3 construct: catalytic domain liberated with APMA
Kind of assay: In vitro MMP inhibition assay (hydrolysis of fluorogenic MCA peptide substrate), collagenase-3. To be noted: Table 1; Ki,app; MCA peptide substrate 10 μM, 37° C., pH 7.5, 2% DMSO. As for the experimental part: The propeptide and catalytic domain of human collagenase-3 (Coll3) was expressed in E. coli as an N-terminal fusion protein with ubiquitin. After purification of the fusion from inclusion bodies, the catalytic domain was liberated by treatment with 2 mM APMA at room temperature overnight. Final purification was completed using copper chelate chromatography.
as §1, §2, §3, §4

The mark [4] stands for this setting: Table 1, Ki,app, MCA peptide substrate 10 μM, 37° C., pH 7.5, 2% DMSO, read-out: Gel A.
Setting [5] is: Table 1, Ki,app, MCA peptide substrate 10 μM, 37° C., pH 7.5, 2% DMSO, read-out: Sin Ki.

human stromelysin (Sln), sequence (P08254 100-272 limits assumed): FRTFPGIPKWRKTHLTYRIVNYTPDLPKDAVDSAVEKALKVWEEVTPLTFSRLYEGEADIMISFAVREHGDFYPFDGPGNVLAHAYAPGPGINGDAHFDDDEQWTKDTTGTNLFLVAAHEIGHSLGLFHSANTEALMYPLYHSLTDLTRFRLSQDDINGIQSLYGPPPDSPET
human progelatinase A (GelA), sequence (P08253 110-446 limits assumed): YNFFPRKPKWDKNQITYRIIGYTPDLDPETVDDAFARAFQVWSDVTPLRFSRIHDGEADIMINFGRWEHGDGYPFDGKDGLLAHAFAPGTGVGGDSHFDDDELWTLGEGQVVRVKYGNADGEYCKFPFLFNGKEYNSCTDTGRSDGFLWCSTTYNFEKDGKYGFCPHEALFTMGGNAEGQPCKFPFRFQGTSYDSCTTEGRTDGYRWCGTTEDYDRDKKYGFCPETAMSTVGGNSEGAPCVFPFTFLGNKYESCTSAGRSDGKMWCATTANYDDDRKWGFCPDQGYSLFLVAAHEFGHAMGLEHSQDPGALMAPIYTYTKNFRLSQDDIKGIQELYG

In the case of `CC(C)(C)[C@H](NS(=O)(=O)c1ccc(Oc2ccccc2)cc1)C(=O)NO` [Example 9k, 2(S)--N-hydroxy-3,3-dimethyl-2-[(4-phenoxybenzenesulfonyl)-amino]butanamide], the Ki in assay [1] (setting [4]) is 0.091 nM; at Human matrilysin (Matr) it was 376 nM; at human stromelysin (Sln) (setting [5]), 4.2 nM; in assay [2], 53 nM; in assay [3] it was 0.057 nM.

With `CSC(C)(C)[C@@H](NS(=O)(=O)c1ccc(Oc2ccc(Cl)cc2)cc1)C(=O)NO` [Example 9b, 2(S)--N-hydroxy-3-methyl-3-methylsulfanyl-2-[(4-(4-chlorophenoxy)benzenesulfonyl)amino]butanamide], the Ki in assay [1] (setting [4]) amounted to 0.065 nM; at Human matrilysin (Matr) it was 115 nM; on human stromelysin (Sln) (setting [5]), 1.5 nM; in assay [2], 30 nM; in assay [3], 0.042 nM.

With `CC(C)(C)C(NS(=O)(=O)c1ccc(Oc2ccc(F)cc2)cc1)C(=O)NO` (stereo in doubt) [Example 9l, 2(S)--N-hydroxy-3,3-dimethyl-2-[(4-(4-fluorophenoxy)benzenesulfonyl)-amino]butanamide], the Ki in assay [1] (setting [4]) is 0.109 nM; at Human matrilysin (Matr), 120 nM; on human stromelysin (Sln) (setting [5]) it was 1.8 nM; in assay [2], 30 nM; in assay [3], 0.059 nM.

Take `CC(C)(C)[C@H](NS(=O)(=O)c1ccc(Oc2ccccn2)cc1)C(=O)NO` [Example 10c]: the Ki was determined as 5.1 nM in assay [1] (setting [4]); 2270 nM on Human matrilysin (Matr); 71 nM at human stromelysin (Sln) (setting [5]); 960 nM in assay [2]; 4.6 nM in assay [3].

For `CC(C)(SCc1ccccn1)[C@@H](NS(=O)(=O)c1ccc(Oc2ccc(Br)cc2)cc1)C(=O)NO` [Example 9e, 2(S)--N-hydroxy-3-methyl-3-(pyrid-2-yl)methylsulfanyl-2-[(4-(4-bromophenoxy)benzenesulfonyl)amino]butanamide], the Ki was 7.9 nM at Human matrilysin (Matr), 0.26 nM on human stromelysin (Sln) (setting [5]) and 4.1 nM in assay [2].

On to `CC(C)(C)C(NS(=O)(=O)c1ccc(Oc2ccc(Cl)cc2)cc1)C(=O)NO` (stereo in doubt) [Example 9m, 2(S)--N-hydroxy-3,3-dimethyl-2-[(4-(4-chlorophenoxy)benzenesulfonyl)amino]butanamide], for which the Ki in assay [1] (setting [4]) came to 0.09 nM; in assay [1] (Table 2, comparative example, gelatinase A, read-out: GELATINASE Kj), 0.09 nM; on Human matrilysin (Matr), 93 nM; at human stromelysin (Sln) (setting [5]), 1 nM; on human stromelysin (Sln) (Table 2, comparative example, read-out: STROMELYSIN Ki) it was 1 nM; in assay [2], 21 nM. In addition, the Ki in assay [3] was 0.034 nM.

Regarding `CC(C)(SCc1ccccc1)[C@@H](NS(=O)(=O)c1ccc(Oc2ccccc2)cc1)C(=O)NO` [Example 9i, 2(S)--N-hydroxy-3-methyl-3-benzylsulfanyl-2-[(4-phenoxybenzenesulfonyl)amino]butanamide], the Ki stood at 0.038 nM in assay [1] (setting [4]); 26 nM on Human matrilysin (Matr); 1.4 nM at human stromelysin (Sln) (setting [5]); 33 nM in assay [2]; 0.16 nM in assay [3].

Regarding `CC(C)(SCc1ccccn1)[C@@H](NS(=O)(=O)c1ccc(Oc2ccc(Br)cc2)cc1)C(=O)O` [Example 3d, N-[4-(4-Bromophenoxy)benzenesulfonyl]--S--[(pyrid-2-yl)methyl]-D-penicillamine], the Ki was found to be 7 nM in assay [1] (setting [4]); 75000 nM on Human matrilysin (Matr); 1500 nM at human stromelysin (Sln) (setting [5]); 34000 nM in assay [2]; 178 nM in assay [3].
